Series [1] has as its system TNF-α induced IL-6. Briefly: TNF-α-induced IL-6 production determined by IL-6 ELISA. Conditions: for activity at 10 µM / inhibition at 10 µM: Homo sapiens; for % IL6 production compare to TNF stimulation of IL6 (100%), HAEC, IL6, @ 5 uM / % IL6 production compare to TNF stimulation of IL6 (100%), Compds tested @ 10 uM HAEC, IL6: TNF stimulated; for % IL6 production compare to TNF stimulation of IL6 (100%), HAEC, IL6, @ 5 uM: compound 5 uM (bracketed value); for % IL6 production compare to TNF stimulation of IL6 (100%), Compds tested @ 10 uM HAEC, IL6: compound 10 uM. The class given is cell-based. The procedure, abridged: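 Human aortic endothelial cells grown to ≥90% confluence, then treated with compounds and stimuli in serum-free medium with 0.2% albumin. Secreted IL-6 in collected media measured by sandwich ELISA (2 ug/ml capture, 200 ng/ml biotinylated detection antibody, streptavidin-HRP), read at 450 nm.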

Series [2] has as its system Human aortic smooth muscle cells. Conditions: 24 h.
Description: Human aortic smooth muscle cells (Clonetics) were used. Cells were grown in basal medium containing 5% fetal bovine serum supplemented with growth factors, basic fibroblast growth factor, epidermal growth factor and insulin. […] The cells were then serum starved for 24 h to induce quiescence. Fresh growth medium containing no compound or 10 μM compound was then added and further incubated for 24 h. Cell number was determined by using a cell proliferation assay kit (Celltiter96 AQueous from Promega).
Series [3] has as its system G-HSA induced IL-6. Briefly: AGE-induced inflammatory response determined by IL-6 ELISA (glycated human serum albumin stimulus). In kind it is cell-based. Conditions: 24 h, read-out: % IL6 production compare to AGE stimulation of IL6 (100%), Compds tested @ 10 uM HAEC, IL6. The protocol: Human aortic endothelial cells (HAEC, Clonetics) were cultured according to manufacturer in growth medium (Clonetics): basal medium containing human epidermal growth factor, hydrocortisone, vascular endothelial growth factor, heparin binding growth factor-B, long R3-insulin-like growth factor-1, ascorbic acid, gentamicin/amphotericin and 5% FBS. These cell were allowed to reach at least 90% confluency before subjected to experimental treatments. Glycated human serum albumin (G-HSA) was from US Biologicals. Tumor necrosis factor α was from R&D Systems.
Endothelial cells were treated with control medium or medium containing 10 to 100 ng/ml TNF-α or 300 μg/ml glycated-HAS (treated cells or treatments) for 24 hrs, in control and compound-added duplicates, containing 10 μM compound. All treatments, compound-added and controls were carried out in serum free media containing 0.2% albumin. Media from all conditions were collected and used for IL-6 ELISA.
IL-6 ELISA was carried out using human IL-6 DuoSet ELISA development kit as described by manufacturer (R&D Systems). Mouse anti-human Il-6 was used as the capture antibody (2 ug/ml) and biotinylated goat anti-human IL-6 (200 ng/ml) was used as the detection antibody. Culture media were incubated with capture antibody (in 96 well) for 2 h at room temperature. […] Color development was read at 450 nm in a Microplate reader.
For orientation: ELISA stands for enzyme-linked immunosorbent assay.

The test system of series [4] is cells. The series is described as follows: Cytotoxicity/Lactate Dehydrogenase assay. Conditions: toxic or cause cell death; concentrations (uM) given. In kind it is cell-based. The method, then:
An appropriate number of cells are plated in four 96-well plates, one plate for “day 0” and three plates for days 1-3. Cells are treated with at least one compound of the present invention in varying concentrations with and without the apoptosis inducer cisplatin (2 μM) (“+cis” or “-cis”). Unteated cells are also assayed with and without cisplatin. After transfection, the plates are incubated at 37° C. overnight.
An appropriate number of cells are plated in four 96-well plates, one plate for “day 0” and three plates for days 1-3. Cells are treated with at least one compound of the present invention in varying concentrations. The negative control cells have normal media conditions, a duplicate set of wells is treated with the composition in which the compound is provided, but there is no added compound and the positive control cells are treated with the apoptosis inducer cisplatin (2 μM). All of the cells are transfected with a vector having a promoter that is responsive to apoptosis conditions. When apoptosis occurs, the promoter is turned on and the lactic dehydrogenase gene is activated and the enzyme protein is made and active. Activity is easily detected with a color change. After transfection, the plates are incubated at 37° C. overnight.
About 8 mls of warmed alpha MEM LDH lysis buffer (2% Triton X100) and about 8 mls of culture media (1/2 dilution) are combined. Two 96-well v-bottom plates are prepared, one labeled “lysis” and one labeled “supernatant.” To lyse the cells, about 200 μl Alpha MEM lysis buffer (diluted 1/2) is added to one test plate from which the supernatant has been removed and added to the plate labeled supernatant. After mixing, about 200 μl of lysed cells are transferred to the lysis plate. Both the lysis and supernatant plates are centrifuged at about 1600 rpm for about 10 min. After centrifugation, about 100 μl of both the supernatant or lysate is transferred to corresponding 96-well flat-bottomed plates.
The assay for cytotoxicity uses the Cytotoxicity Detection Kit (LDH) from Roche Diagnostics Corp. (Indianapolis, Ind.). Using the directions provided, the dye solution is mixed and added each well of the lysate and supernatant plate and incubated for up to 20-25 min at 15-25° C. in the dark.

Series [5] concerns endothelial cells. Briefly: Toxicity to endothelial cells when AGE stimulated. The class given is cell-based. The protocol: In general, to determine if there is cytotoxic activity associated with a compound, cells of a particular type, in a growing stage or a quiescient stage, are treated with the compound of interest. Various parameters of cell death or cessation are used to measure the effects of the compound. For example, the amount of nucleic acid or protein synthesis can be measured or visual observation of the state of the cells, such as release from the substrate, can be used to measure the state of the cells.
All treatments, compound-added and controls were carried out in serum free media containing 0.2% albumin. Media from all conditions were collected and used for IL-6 ELISA.

Where [6] appears, read: 24 h, read-out: Inhibition of TNF-induced IL6 production.
Where [7] appears, read: endothelial cells, AGE stimulated.

Here are results for 15 molecules from patent publication US7332489B2, “Methods and compositions of novel triazine compounds” (Reddy US Therapeutics, Inc., priority 2003, dated 2008).

Read-outs that look alike come from different tables or passages of the source.

Take `CN1CCC(N(C)c2nc(Nc3ccc(OCc4ccccc4)c(Cl)c3)nc(NC3CCCCCC3)n2)CC1`: the “Inflammation Data, activity in words at 1 uM” value in series [1] was “Not active”. In series [1] (5 uM), the “Inflammation Data, activity in words at 5 uM” value is reported as “Not active” and the “Inflammation Data, cell death at 5 uM” value stood at 30%. Moreover, the “Inflammation Data, cell death at 10 uM” value in series [1] (10 uM) is reported as “totaldeath”. In series [2], the “Proliferation Data, cell death” value is “no celldeath” and the “Proliferation Data, cell morphology (rounding, blunting, morphology change)” value is “cell morphologychange at 5 & 10 uM”.

In the case of `CN(c1nc(Nc2ccc(OCc3ccccc3)c(Cl)c2)nc(NC2CCCCCC2)n1)C1CCNCC1`, in series [1], the “Inflammation Data, activity in words at 1 uM” value is given as “not active”. Further, the “Inflammation Data, cell death at 5 uM” value in series [1] (5 uM) was found to be 50%. Also, in series [1] (10 uM), the “Inflammation Data, cell death at 10 uM” value is reported as “total cell death”. For the same molecule, in series [2], the “Proliferation Data, cell death” value is given as “celldeath at 10 uM” and the “Proliferation Data, cell morphology (rounding, blunting, morphology change)” value was “cell morphologychange at 7.5 uM”.

Take `CCN1CCCC1CNc1nc(Nc2scc(C)c2C(N)=O)nc(NC2CCCCCC2)n1` (stereo not drawn) [Compound 39, 2-[(4-(cycloheptylamino)-6-{[(1-ethyl-2-pyrrolidinyl)methyl]amino}-1,3,5-triazin-2-yl)-amino]-4-methyl-3-thiophenecarboxamide]: the activity at 10 µM in series [3] (HAEC, 10 uM compound, AGE stimulation = 100%) was 26%; in series [1] (24 h, Table 5, second part, column 1, class = % of control IL6 production, read-out: Inhibition of TNF-induced IL6, production), 25 to 50%.

`COc1ccc(Nc2nc(NC(C)C)nc(N(C)C3CCNCC3)n2)cc1Cl` [Compound 107, N^2-(3-chloro-4-methoxy-phenyl)-N^4-isopropyl-N^6-methyl-N^6-piperidin-4-yl-1,3,5-triazine-2,4,6-triamine] gave a melting point of 129 °C. For the same molecule, in series [1] (HAEC, 5 uM compound, TNF stimulation = 100%), the “% IL6 production compare to TNF stimulation of IL6 (100%), @ 5 uM” value was 60 @ 5 uM %. Moreover, the activity at 10 µM in series [1] (setting [6]) lay in the range of 50 to 75%.

For the molecule `COc1ccc(Nc2nc(NCCCCCO)nc(N(C)C3CCNCC3)n2)cc1Cl` [Compound 109, 5-[4-(3-chloro-4-methoxy-phenylamino)-6-(methyl-piperidin-4-yl-amino)-1,3,5-triazin-2-ylamino]-pentan-1-ol], the melting point amounted to 101 °C. For the same molecule, the activity at 10 µM in series [1] (24 h, read-out: % IL6 production compare to TNF stimulation of IL6 (100%), Compds tested @ 10 uM HAEC, IL6) came to 40%. For the same molecule, the activity at 10 µM in series [1] (setting [6]) was 25 to 50%.

On to `COc1ccc(Nc2nc(Nc3ccc(OC)c(Cl)c3)nc(N(C)C3CCN(C)CC3)n2)cc1Cl` [Compound 121, N,N′-Bis-(3-chloro-4-methoxy-phenyl)-N″-methyl-N″-(1-methyl-piperidin-4-yl)-[1,3,5]triazine-2,4,6-triamine], for which, in series [1] (HAEC), the “% IL6 production compare to TNF stimulation of IL6 (100%), HAEC, IL6, @ 5 uM” value (“% IL6 production compare … IL6, @ 5 uM” below) was “[50 @ 5 uM, but some %” and the “% IL6 production compare to TNF stimulation of IL6 (100%), Compds tested @ 10 uM HAEC, IL6” value is on record as “total cell death @ 10 uM”. Moreover, in series [1] (human, 24 h, 5 µM), the “toxicity @ 5 uM” value is “toxicity (~20%)]”. In addition, in series [4], the Toxicity result was “Toxic by toxicityassay at 0.75 uM.Starts blunting by1 uM and rounding by5 uM”. The “Toxic (AGE-treated)” value in series [5] is given as “toxic”.

In the case of `COc1ccc(Nc2nc(NC3CCCCCC3)nc(NC3CCN(Cc4ccccc4)CC3)n2)cc1Cl` [Compound 134, N-(1-Benzyl-piperidin-4-yl)-N′-(3-chloro-4-methoxy-phenyl)-N″-cycloheptyl-[1,3,5]triazine-2,4,6-dianmine], in series [1] (HAEC), the “% IL6 production compare … IL6, @ 5 uM” value worked out at 55% and the “% IL6 production compare to TNF stimulation of IL6 (100%), Compds tested @ 10 uM HAEC, IL6” value is listed as “total cell death”. In addition, the “Toxic (AGE-treated)” value in series [5] (setting [7]) was “toxic”.

In the case of `COc1ccc(Nc2nc(NC3CCCCCC3)nc(NC3CCNCC3)n2)cc1Cl` [Compound 135, N^2-(3-chloro-4-methoxy-phenyl)-N^4-cycloheptyl-N^6-piperidin-4-yl-1,3,5-triazine-2,4,6-triamine], in series [1] (HAEC), the “% IL6 production compare … IL6, @ 5 uM” value amounted to 60% and the “% IL6 production compare to TNF stimulation of IL6 (100%), Compds tested @ 10 uM HAEC, IL6” value was “total cell death”. The “Toxic (AGE-treated)” value in series [5] (setting [7]) is reported as “toxic”.

`CN1CCC(N(C)c2nc(Nc3ccc(O)c(Cl)c3)nc(NC3CCCCCC3)n2)CC1` [Compound 138, 2-Chloro-4-{4-cycloheptylamino-6-[methyl-(1-methyl-piperidin-4-yl)-amino]-[1,3,5]triazin-2-ylamino}-phenol]: the “% IL6 production compare to TNF stimulation of IL6 (100%), Compds tested @ 10 uM HAEC, IL6” value in series [1] (HAEC) is “toxic”. Also, the “Toxic (AGE-treated)” value in series [5] was “toxic”.

In the case of `CCN1CCCC1CNc1nc(Nc2ccc(OC)c(Cl)c2)nc(NC2CN3CCC2CC3)n1` (stereo not drawn) [Compound 148, N-(1-Aza-bicyclo[2.2.2]oct-3-yl)-N′-(3-chloro-4-methoxy-phenyl)-N″-(1-ethyl-pyrrolidin-2-ylmethyl)-[1,3,5]triazine-2,4,6-triamine], in series [1] (HAEC), the “% IL6 production compare … IL6, @ 5 uM” value is on record as 60% and the “% IL6 production compare to TNF stimulation of IL6 (100%), Compds tested @ 10 uM HAEC, IL6” value is recorded as “total cell death”. Moreover, in series [5], the “Toxic (AGE-treated)” value is recorded as “toxic”.

Take `COc1ccc(Nc2nc(NC3CCCCCC3)nc(N(C)C3CCNCC3)n2)cc1F` [Compound 159, N^2-Cycloheptyl-N^4-(3-fluoro-4-methoxy-phenyl)-N^6-methyl-N^6-piperidin-4-yl-1,3,5-triazine-2,4,6-triamine]: in series [1] (HAEC), the “% IL6 production compare … IL6, @ 5 uM” value was “total cell death @ 5 and 10”; the “% IL6 production compare to TNF stimulation of IL6 (100%), Compds tested @ 10 uM HAEC, IL6” value is “total cell death @ 5 and 10”. The “Toxic (AGE-treated)” value in series [5] was “toxic”.

As to `CN1CCC(N(C)c2nc(Nc3ccc4ccccc4c3)nc(NC3CC3)n2)CC1` [Compound 180, N-Cyclopropyl-N′-methyl-N′-(1-methyl-piperidin-4-yl)-N″-naphthalen-2-yl-[1,3,5]tri-azine-2,4,6-triamine], the activity at 10 µM in series [3] was 5%. Further, the inhibition at 10 µM in series [1] (24 h, read-out: Inhibition of TNF-induced IL6 production, Table 7, first part) fell in the range of 85 to 100%; in series [1] (24 h, read-out: Inhibition of TNF-induced IL6 production, Table 7, second part, column 1) it was 50 to 65%.

In the case of `COc1ccc(Nc2nc(NC3CCCCCC3)nc(OCC3CCCN3)n2)cc1Cl` (stereo not drawn) [Compound E22, N^2-(3-chloro-4-methoxyphenyl)-N^4-cycloheptyl-6-(2-azolanylmethoxy)-1,3,5-triazine-2,4-diamine], the melting point is 84 to 86 °C.

Turning to `COc1ccc(Nc2nc(NC3CCCCCC3)nc(Oc3ccccc3F)n2)cc1Cl` [Compound E28, N^2-(3-chloro-4-methoxyphenyl)-N^4-cycloheptyl-6-(2-fluorophenoxy)-1,3,5-triazine-4,2-diamine], the melting point lay in the range of 98 to 100 °C.

With `CN1CCC(N(C)c2nc(Nc3ccc(O)c(Cl)c3)nc(NC3CCCCCC3)n2)CC1` [drawing 1613], the “Inflammation Data, cell death at 10 uM” value in series [1] (human, 24 h, 10 µM) is recorded as “total cell death”. The “Proliferation Data, cell morphology (rounding, blunting, morphology change)” value in series [2] is given as “cell bluntingat 3 to 10 uM”.

By melting point is commonly meant the temperature of the solid-liquid transition. What is called inhibition is how much of the control response was suppressed.
